Test results published in US20260256790A1, “DEBIO-0123 IN COMBINATION WITH TEMOZOLOMIDE AND RADIOTHERAPY FOR USE IN TREATING GLIOMA” (Debiopharm International S.A., priority 2023, published 2026).
Where “and” joins values, the source holds several entries; their conditions need not be identical. Identical values can stand only once. Like-named read-outs stand apart in the source and are kept apart here. Values belong to the compound of their own block, whether it stands above or below them.

What was measured:
[1] = Plasma and brain concentrations (PK) in healthy mice after oral dosing; format: in vivo, Nu/Nu mice; conditions: for Kp at 72 h: brain/plasma
Procedure: Healthy male Nu/Nu mice were treated orally with either (i) a single dose of 30 mg/kg Compound of formula (I) ([…], 3 mice per time-point), (ii) 30 mg/kg of Compound of formula (I) given once a day for four consecutive days (27 mice in total, 3 mice per time-point), (iii) 30 mg/kg of AZD-1775 (adavosertib, purchased from Combi-Blocks, San Diego, USA) given twice a day for three consecutive days and once on day four (27 mice in total, 3 mice per time-point), (iv) or 80 mg/kg of Zn-c3 (purchased from EOS Med Chem, Jina City, China) given once a day for four consecutive days (27 mice in total, 3 mice per time-point). The doses used for each compound have previously been reported as active dose levels. Compound of formula (I) was formulated as a suspension in 0.5% methylcellulose with 1% Tween 80 and administered at a concentration of 3.0 mg/mL. […] The dosing volume of all formulations was 10 mL/kg. At designated time-points the mice were euthanized by carbon dioxide inhalation, blood samples were collected by cardiac puncture into K2EDTA containing tubes. The tubes were inverted several times, placed on ice and centrifuged within 30 min of collection (4° C. for 5 min at 6000 rpm) to obtain plasma. The plasma samples were snap frozen in dry ice and stored at −80° C. until analysis. The brain was collected, weighed and snap frozen in dry ice until further analysis. To obtain brain homogenates, firstly water was added to each brain (brain weight:water volume=1:4) then the brain was homogenized with a H-speed dispersator (time procedure: homogenizing for 10 s and interval of 10 s per time, total 3-5 times; cleaning procedure for dispersator: Water-Methanol-Ethanol-Water, 10 s each). The brain homogenate samples were transferred to individual tubes and stored at −80° C. prior to analysis. The mouse plasma and brain samples were analysed as follows. For each analytical batch of plasma and brain samples, the standard and quality control (QC) samples were freshly prepared in blank male Nu/Nu mouse plasma (with K2EDTA anticoagulant) and brain homogenate. To an aliquot of each standard, QC, control blank and study samples, internal standard (^13CD6-Compound of formula (I) for Compound of formula (I), terfenadine for AZD-1775 and Zn-c3) in methanol/acetonitrile (1:1, v/v) was added. The samples were mixed for 1 minute and centrifuged at 4000 rpm at 4° C. for 15 minutes. Supernatants were transferred and diluted in MeOH/water (1:1, v/v, with 0.1% FA) prior to LC-MS/MS injection. Chromatographic separation was achieved on an Shimadzu LC-20AD using a Kinetex 2.6μ C18 100A column (50 mm*3.00 mm) for Compound of formula (I) and AZD-1775 samples and a ACE 5 C4 column (50 mm*2.1 mm) for Zn-c3 samples with gradient elution using the following conditions: flow rate: 0.7 mL/min; run time: 3.0 min; mobile phase: A: 5 mM NH4OAc (0.1% FA), B: Acetonitrile (0.1% FA). Detection was accomplished with an AB Sciex 5500 utilizing electrospray MS/MS in positive ion multiple reaction monitoring mode (MRM). The MRM channels were 511.29/98 for Compound of formula (I), 501.47/442.20 for AZD-1775 and 527.36/468.10 for Zn-c3. The MRM channels of internal standard were 518.17/102.10 (^13CD6-Compound of formula (I)) for Compound of formula (I), 472.40/436.40 (terfenadine) for AZD-1775 and Zn-c3. The measured plasma and brain concentrations at each time-point, the nominal sample collection time, and intended dosages were used for pharmacokinetic analysis. The PK parameters of all study compounds were determined by non-compartmental analysis using WinNonlin Version 8.0 (Pharsight).

[2] = Drug concentration in monkey brain and plasma after daily oral administration for 91 days; format: in vivo, cynomolgus monkeys; conditions: 10 mg/kg oral once a day for 91 days
Procedure: Compound of formula (I) was orally given to 3 female cynomolgus monkeys by gavage once a day for 91 days. The volume of administration was 5 mL/kg, and the vehicle was an aqueous solution of 0.5% (w/v) methylcellulose (cps 400) and 1% (w/v) Tween 80. The Compound of formula (I) dose was 10 mg/kg; this dose level was assessed in this study to be the […] no adverse effect level (NOAEL) based on general toxicology evaluation. The animals were necropsied 24 hours after the last dose after an overnight period without food. A sample from brain tissue (left forebrain) was collected from each animal, snap frozen in liquid nitrogen. and stored frozen at <−50° C. Blood samples were taken from the femoral vein into tubes containing K2EDTA, fully inverted approximately 10 times, and placed on crushed wet ice until centrifugation at 2300 g for 10 minutes at approximately 4° C. The resultant plasma was separated, transferred into polypropylene tubes, and frozen at <−50° C. Tissue and plasma samples were transported frozen on dry ice to the respective sites of analysis.
The monkey plasma samples were analyzed for their contents in Compound of formula (I) and N^32-desmethyl-Compound of formula (I) as follows. The plasma samples were fortified in human K2-EDTA plasma (1:9 monkey:human volume ratio) prior to extraction. All solution preparations and dilutions were conducted under sodium vapor light and in “low-binding” quality polypropylene tubes and deep-well plates. The analytes and internal standards (^13CD6-Compound of formula (I) and D7-N^32-desmethyl-Compound of formula (I)) were extracted by protein precipitation with 5M aqueous urea (40 μL for 50 μL plasma), and then analyzed by LC-MS/MS. Chromatographic separation was achieved on an Synergi Polar-RP, 80A, 4 μm 75×2.00 mm column (Phenomenex) with gradient elution using a mixture of 0.1% formic acid in water as eluent A and 0.1% formic acid in acetonitrile as eluent B (5% B from 0 to 0.50 min, 42% B at 4.5 min, 95% B from 4.60 min to 5.50 min, 5% B at 5.60 min, 100% B at 5.70 min, 5% B at 6.40 min, 100% B at 6.50 min, 5% B at 7.00 min; 800 μl/min, 70° C.). Detection was accomplished with a AB Sciex 6500+ mass spectrometer utilizing electrospray MS/MS in positive ion multiple reaction monitoring mode (MRM). The lower limits of quantification for Compound of formula (I) and N^32-desmethyl-Compound of formula (I) were 5.00 ng/mL and 2.50 ng/mL, respectively.
The monkey brain tissue samples were analyzed for their contents in Compound of formula (I) and N^32-desmethyl-Compound of formula (I) as follows. Tissue samples were homogenized in human plasma (1 mg tissue for 10 μL plasma) at +4° C. using a Precelly Evolution system. The analytes (Compound of formula (I) and N^32-desmethyl-Compound of formula (I)) were extracted by protein precipitation with methanol/acetonitrile (9:1, v:v) containing the internal standards (^13CD6-Compound of formula (I) and D7-N^32-desmethyl-Compound of formula (I)) and then analyzed by UHPLC-MS/MS. Chromatographic separation was achieved on a HSS T3 1.8 μm, 2.1×100 mme column (Waters) with gradient elution using a mixture of 0.1% formic acid in water as eluent A, and 0.1% formic acid in acetonitrile as eluent B (20% B from 0 to 0.50 min, 90% B from 1.80 min to 2.30 min, 20% B at 2.60 min; 0.6 mL/min, room temperature). Detection was accomplished with Xevo TQ-S mass spectrometer (Waters) utilizing electrospray MS/MS in positive ion multiple reaction monitoring mode (MRM). The lower limits of quantification for Compound of formula (I) and N^32-desmethyl-Compound of formula (I) were 55.00 ng/g tissue and 22.00 ng/g tissue, respectively.

[3] = CSF and matching plasma concentrations in glioma patients (clinical trial Arms A and B); format: in vivo, human
Procedure: In the clinical trial described in Example 9, cerebrospinal fluid (CSF) stabilized with formic acid 0.5% and matching plasma samples collected on K2 EDTA were drawn from 3 patients of Arm A on day 11 of cycle 1 (i.e. 2 patients at 150 mg and 1 patient at 200 mg of Study drug) and 1 patient of Arm B on Week 3 day 1 (i.e. Day 15 after daily doses of Study drug at 90 mg).
Study drug (parent, active moiety) and its active metabolite N^32-desmethyl-Study drug were measured using LC-MS/MS methods. Results were provided in ng per mL of plasma or CSF, and then converted to nmol/L using the molecular weights of the Study drug (511.45 g/mol) and N^32-desmethyl-Study drug (497.42 g/mol).
(§1) Thus, the unbound (or free fraction) of the Study Drug and the N^32-desmethyl-Study drug are calculated.
In CSF, the total protein concentration varies between 0.2% and 0.5% of the total protein concentration of blood (H. Reiber, Clinica Chimica Acta, 2001; Schilde L M et al., PLoS ONE, 2018), therefore the concentration measured in CSF essentially corresponds to the free fraction of the compounds.
For each of the 4 patients, the ratio CSF/plasma of a given compound (Study drug parent or metabolite) was calculated using the CSF concentration of said compound (in nmol/L) and the unbound or free fraction of said compound in plasma (in nmol/L).

plasma proteins = assay: Binding to plasma proteins; format: in vitro ADME
Procedure: as §1

[4] = 30 mg/kg, bid for 3 days and once on day 4, oral, day 4
[5] = Arm A, 150 mg, day 11 of cycle 1, listed as N^32-desmethyl-Study drug
[6] = Arm A, 200 mg, day 11 of cycle 1
[7] = Arm B, 90 mg daily, Week 3 day 1 (Day 15)

AUCInf, brain [1, 4]: 99.7 ng·h/g
AUCLast, brain [1, 4]: 94.5 ng·h/g
Cmax, brain [1, 4]: 53.9 ng/g
Kp at 72 h ([1]; male, Nu/Nu, mouse, po, 30 mg/kg, bid for 3 days and once on day 4, oral, day 4, read-out: Brain to plasma ratio based on AUCInf): 0.051
Kp at 72 h ([1]; male, Nu/Nu, mouse, po, 30 mg/kg, bid for 3 days and once on day 4, oral, day 4, read-out: Brain to plasma ratio based on AUCLast): 0.048
Kp at 72 h ([1]; male, Nu/Nu, mouse, po, 30 mg/kg, bid for 3 days and once on day 4, oral, day 4, read-out: Brain to plasma ratio based on Cmax): 0.043
Cmax ([1]; male, Nu/Nu, mouse, plasma, po, 30 mg/kg, bid for 3 days and once on day 4, oral, day 4): 1260 ng/mL
AUC(0-inf) ([1]; male, Nu/Nu, mouse, plasma, po, 30 mg/kg, bid for 3 days and once on day 4, oral, day 4, read-out: AUCInf, plasma): 1960 ng·h/mL
AUC(0-t) ([1]; male, Nu/Nu, mouse, plasma, po, 30 mg/kg, bid for 3 days and once on day 4, oral, day 4, read-out: AUCLast, plasma): 1950 ng·h/mL
Structure (SMILES): C=CCn1c(=O)c2cnc(Nc3ccc(N4CCN(C)CC4)cc3)nc2n1-c1cccc(C(C)(C)O)n1 [AZD-1775, adavosertib, reference compound]

Structure (SMILES): Cc1cc(Nc2ncc3c(n2)N(C)CN(c2c(Cl)cccc2Cl)C3=O)ccc1C1CCNCC1 [N^32-Desmethyl-Compound of formula (I)]
Mean brain:plasma ratio (±SD), at 24 h post last dose (n = 3) [2]: 0.73 ± 0.21
Brain:plasma concentration ratio, at 24 h post last dose ([2]; individual animals): 0.49 and 0.81 and 0.88
Plasma concentration at 24 h post last dose ([2]; individual animals): 531 ng/mL and 233 ng/mL and 365 ng/mL
Brain concentration at 24 h post last dose ([2]; left forebrain, individual animals): 258 ng/g tissue and 188 ng/g tissue and 323 ng/g tissue
CSF/plasma ratio ([3]; 4 patients, Arms A and B): about 5%
CSF concentration [3, 5]: 0.23 nmol/L and 0.26 nmol/L
CSF to “unbound plasma” ratio [3, 5]: 0.06 and 0.05
Raw data concentration in CSF [3, 5]: 0.114 ng/mL and 0.128 ng/mL
Raw data concentration in plasma [3, 5]: 17.7 ng/mL and 15.6 ng/mL
Unbound plasma concentration [3, 5]: 4.59 nM and 4.05 nM
CSF concentration [3, 6]: 0.31 nmol/L
CSF to “unbound plasma” ratio [3, 6]: 0.05
Raw data concentration in CSF [3, 6]: 0.154 ng/mL
Raw data concentration in plasma [3, 6]: 23.2 ng/mL
Unbound plasma concentration [3, 6]: 6.02 nM
CSF concentration [3, 7]: 0.61 nmol/L
CSF to “unbound plasma” ratio [3, 7]: 0.05
Raw data concentration in CSF [3, 7]: 0.302 ng/mL
Raw data concentration in plasma [3, 7]: 42.8 ng/mL
Unbound plasma concentration [3, 7]: 11.10 nM
Active metabolite in plasma as share of Study drug parent ([3]; patient plasma): about 10%
Bound to plasma proteins (plasma proteins): 87.1%

AUCInf, brain ([1]; mouse, in vivo, po, 80 mg/kg): 878 ng·h/g
AUCInf, plasma ([1]; mouse, in vivo, po, 80 mg/kg): 14180 ng·h/mL
AUCLast, brain ([1]; mouse, in vivo, po, 80 mg/kg): 396 ng·h/g
AUCLast, plasma ([1]; mouse, in vivo, po, 80 mg/kg): 14179 ng·h/mL
Brain to plasma ratio based on AUCInf ([1]; mouse, in vivo, po, 80 mg/kg): 0.062
Brain to plasma ratio based on AUCLast ([1]; mouse, in vivo, po, 80 mg/kg): 0.028
Brain to plasma ratio based on Cmax ([1]; mouse, in vivo, po, 80 mg/kg): 0.035
Cmax, brain ([1]; mouse, in vivo, po, 80 mg/kg): 97.2 ng/g
Cmax, plasma ([1]; mouse, in vivo, po, 80 mg/kg): 2773 ng/mL
Structure (SMILES): C=CCn1c(=O)c2cnc(Nc3ccc(N4CCN(C)CC4)cc3)nc2n1-c1ccc2c(n1)[C@@](O)(CC)CC2 [Zn-c3, reference compound]
